# Experimental data published in US20260078114A1, “COMPOUND USED AS INHIBITOR OF CDK4 KINASE AND USE THEREOF” (TYK MEDICINES, INC., priority 2022, published 2026).
# Columns and labels:
# [1] = system: ovarian cancer cell A2780; assay: Cellular antiproliferative assay (MTT, 5 days), A2780; type: cell-based, human; settings: Homo sapiens, 120 h, A2780 cells, 5 days incubation
# Description: (§1) Human breast cancer cell MCF-7, ovarian cancer cell A2780, human mantle cell lymphoma cell JEKO-1. DMEM medium (Bio-Channel), DMSO (dimethyl sulfoxide), MTT (thiazolyl blue), 0.25% EDTA-Tripsin (tryptic digest), 1×PBS (phosphate buffer, PH7.2), 96-well plate (Corning), fetal bovine serum (FBS), 10,000 U/mL penicillin-G/streptomycin, high-speed cryo-centrifuge (EPPENDORF 5810R), enzyme-linked immunoassay (Tecan Spark).
# (§2) • A) Tumor cells were cultured in DMEM (high sugar with 10% FBS and 100 U/mL penicillin-G/streptomycin) at 37° C., 5% CO2 and saturated humidity until 80-90% dense. • B) Removed the culture medium from 10 cm Petri dishes; • C) Rinsed the cells once with 10 ml 1×PBS; • D) Added 4 ml 0.25% EDTA-Tripsin into 37° C., 5% CO2 incubator for trypsin digestion for 5 minutes, transferred to 15 ml centrifuge tube, centrifuged at 200 g for 5 minutes, discarded the supernatant to get cell precipitate; • E) Resuspended with 4 ml DMEM medium, counted and adjust to 50,000 cells/ml. • F) Added cell suspension to 96-well plate with 100 μL per well volume and incubated overnight at 37° C., 5% CO2 incubator.
# (§3) • A) Preparation of gradient dilution solution of the tested compound: the test compound was configured into 1 mM reservoir solution.
# (§4) • A) Taking the cell culture plate and adding 10 μL of 5 mg/ml MTT in the biosafety cabinet; • B) Putting the cell culture plate back into the incubator and continued incubation for 3 hours; • C) Taking the cell culture plate and removing the culture medium, adding 100 μL isopropanol (containing 0.4 mM HCl, 0.1% NP-40), and shaking the bed at room temperature for 30 min; and • D) Determining the absorbance value by selecting 570 nm on a TECAN enzyme-linked immunoassay detector.
# (§5) The % Cell Viability was calculated using the following formula:
# (§6) [formula] • Lum_HC: 0.1% DMSO control cell reading • Lum_Sample: cell readings with compound added • Lum_LC: Blank medium reading
# [2] = system: human mantle cell lymphoma cell JEKO-1; assay: Cellular antiproliferative assay (MTT, 5 days), JEKO-1; type: cell-based; settings: Homo sapiens, 120 h, JEKO-1 cells, 5 days incubation
# Description: as §1, §2, §3, §4, §5, §6
# [3] = target: CDK6/CyclinD3 (Homo sapiens, UniProt Q00534); assay: Kinase activity test (mobility shift assay, EZ Reader), CDK6; type: biochemical; settings: CDK6/CyclinD3 5.00 nM, ATP 350 μM, FL-Peptide34
# [4] = system: Human breast cancer cell MCF-7; assay: Cellular antiproliferative assay (MTT, 5 days), MCF-7; type: cell-based; settings: Homo sapiens, MCF7, 120 h, MCF-7 cells, 5 days incubation
# Description: as §1, §2, §3, §4, §5, §6
# [5] = target: CDK4/CycD1 (Homo sapiens, UniProt P11802); assay: Kinase activity test (mobility shift assay, EZ Reader), CDK4
# Description: The tested compounds were subjected to CDK4 and CDK6 kinase IC50 values test.
# • (1) Preparing a 1.3× enzyme solution containing enzyme, substrate and cofactor as shown below. • (2) Adding 15 μL of 1.3× enzyme solution to each well and incubating for 30 min at room temperature. • (3) Starting the reaction by adding 5 μL of 4×ATP solution, with each test well containing the listed components and a final volume of 20 μL. • (4) Incubating for 150 minutes and then stopping the reaction by adding 75 μL of buffer (containing 0.5 M EDTA). • (5) Reading the data from each test well by EZ for analysis.
# Percentage inhibition was calculated using the read conversion ratio (CR) according to the formula below:
# The wells treated with DMSO were used as positive control (positive control) and the wells without enzyme were used as negative control (negative control).
# [6] = Preclinical rat pharmacokinetic test; type: in vivo; settings: male SD rats, gavage (p.o.), 10 mg/kg, plasma; for AUC(0-t) / Cmax / Tmax: Sprague-Dawley (SD), rat, po
# Description: Healthy adult SD rats, male, 6-8 weeks old, weighing 200-300 g. EDTA-Na2 anticoagulant. Analytical balance, animal weight scale, magnetic stirrer, freezing centrifuge, single-channel manual pipette. About 10 mg of the sample to be tested was precisely weighed, the converted 5% DMSO was added to dissolve, and then 10 percent solutol HS-15 and 85% saline were added, ultrasonic treatment was performed, vortex mixed, to obtain the solution having a concentration of 1 mg/mL; freshly prepared before use. Animals were kept in rat cages and fasted (not less than 10 h) the day before the test, but not water fasted; on the day of the test, they were weighed and labeled at the tail. Blank blood was collected before drug administration. Blood was collected from the tail vein. • Route of administration: gavage (p.o.). • Dose: 10 mg/kg • Administration volume: 10 mL/kg • Operation procedure: Hold the rat with the left hand with anti-biting gloves, made it stand upright, extent the 16-gauge gavage needle from the throat in the mouth, and then injected the drug into the stomach when there was no obvious resistance. Before and 0.5 […] and 24 h after the administration of the drug, 0.1 ml of whole blood from the test animal was collected in EDTA-Na2 anticoagulant tubes, which was mixed upside down for 3-4 times and then centrifuged at 10,000 g for 5 min at 4° C. to isolate the plasma, which was stored at -80° C. for testing. Blood was collected from the tail vein. […] Pipetted 25 μL of rat blank plasma in a centrifuge tube respectively, added 25 μL of prepared standard series solution (prepared in methanol), then added 200 μL of internal standard solution (prepared in methanol), vortexed and mixed for 2 min, centrifuged at 4° C., 10,000 g for 10 min. Unknown plasma samples treatment: 25 μL of rat plasma containing drug was aspirated, 25 μL of methanol and 200 μL of internal standard solution were added sequentially, vortexed and mixed for 2 min, and then centrifuged at 4° C. and 10,000 g for 10 min. The supernatant was extracted for LC/MS/MS detection. Shimadzu liquid phase and Triple Quad TM 6500+AB mass spectrometry were utilized to establish a quantitative assay for the compounds to be tested. The pro-drug concentration in plasma was determined. The blood drug concentration-time curves were plotted, and the main pharmacokinetic parameters were calculated using the non-compartment model in winnonlin Phoenix software, and the detailed data were shown in Table 3.
# Sequence of CDK6/CyclinD3 (Q00534 whole entry, species assumed): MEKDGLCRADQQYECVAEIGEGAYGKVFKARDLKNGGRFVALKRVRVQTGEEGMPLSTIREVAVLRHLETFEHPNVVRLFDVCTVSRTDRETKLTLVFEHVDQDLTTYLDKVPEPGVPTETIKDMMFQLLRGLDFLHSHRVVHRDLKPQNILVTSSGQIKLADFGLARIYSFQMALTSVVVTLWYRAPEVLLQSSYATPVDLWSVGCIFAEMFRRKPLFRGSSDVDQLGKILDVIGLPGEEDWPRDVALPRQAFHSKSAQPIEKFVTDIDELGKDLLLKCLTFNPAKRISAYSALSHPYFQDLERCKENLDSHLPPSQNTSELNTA
# Sequence of CDK6/CyclinD3 (P30281 whole entry partner, species assumed): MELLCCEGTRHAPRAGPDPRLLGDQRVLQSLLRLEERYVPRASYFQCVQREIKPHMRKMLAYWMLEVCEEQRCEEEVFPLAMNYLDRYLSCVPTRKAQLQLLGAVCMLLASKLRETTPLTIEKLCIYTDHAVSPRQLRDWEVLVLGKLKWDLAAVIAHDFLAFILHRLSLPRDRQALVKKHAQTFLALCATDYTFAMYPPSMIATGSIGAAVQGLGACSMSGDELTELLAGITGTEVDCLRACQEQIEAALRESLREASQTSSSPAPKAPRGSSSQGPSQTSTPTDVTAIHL
# Sequence of CDK4/CycD1 (P11802 whole entry, species assumed): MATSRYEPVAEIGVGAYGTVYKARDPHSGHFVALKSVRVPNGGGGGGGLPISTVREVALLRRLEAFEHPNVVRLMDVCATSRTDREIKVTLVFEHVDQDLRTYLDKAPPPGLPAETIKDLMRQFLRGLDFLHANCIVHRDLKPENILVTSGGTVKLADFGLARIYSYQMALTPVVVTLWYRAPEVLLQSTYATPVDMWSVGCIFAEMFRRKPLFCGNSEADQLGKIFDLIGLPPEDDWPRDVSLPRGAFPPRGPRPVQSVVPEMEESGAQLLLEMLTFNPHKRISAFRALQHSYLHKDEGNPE
# Sequence of CDK4/CycD1 (P24385 whole entry partner, species assumed): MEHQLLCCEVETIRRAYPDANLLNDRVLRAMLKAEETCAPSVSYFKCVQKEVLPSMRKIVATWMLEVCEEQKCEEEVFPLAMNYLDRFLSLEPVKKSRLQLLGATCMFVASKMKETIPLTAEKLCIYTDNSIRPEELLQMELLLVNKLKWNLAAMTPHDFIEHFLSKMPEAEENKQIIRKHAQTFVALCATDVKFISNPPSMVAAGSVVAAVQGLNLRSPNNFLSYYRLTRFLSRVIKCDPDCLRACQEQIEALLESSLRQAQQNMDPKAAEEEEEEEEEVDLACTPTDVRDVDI
structure (smiles),measurement,setting,value
"CC(C)N1CCOc2c(F)cc(-c3nc(N[C@@H]4CCOC[C@H]4O)ncc3F)cc21 [TA-5, (3S,4R)-4-((5-fluoro-4-(8-fluoro-4-isopropyl-3,4-dihydro-2H-benzo[b][1,4]oxazin-6-yl)pyrimidin-2-yl)amino)tetrahydro-2H-pyran-3-ol]",IC50,[1],≤ 500 nM
same,IC50,[2],≤ 500 nM
same,IC50,[3],30.2 nM
same,IC50,[4],≤ 500 nM
same,IC50,[5],3.11 nM
"C[C@H]1CCN(C)c2nc3c(F)cc(-c4nc(Nc5ccncc5)ncc4Cl)cc3n21 [TB-137, (S)-5-chloro-4-(9-fluoro-1,4-dimethyl-1,2,3,4-tetrahydrobenzo[4,5]imidazo[1,2-a]pyrimidin-7-yl)-N-(pyridin-4-yl)pyrimidin-2-amine]",IC50,[1],≤ 500 nM
same,IC50,[2],≤ 500 nM
same,IC50,[3],95.2 nM
same,IC50,[4],≤ 500 nM
same,IC50,[5],12.7 nM
"CC(C)c1c(C(C)(C)O)nc2ccc(-c3nc(N[C@@H]4CCOC[C@H]4O)ncc3Cl)cn12 [TA-25, (3S,4R)-4-((5-chloro-4-(2-(2-hydroxypropan-2-yl)-3-isopropylimidazo[1,2-a]pyridin-6-yl)pyrimidin-2-yl)amino)tetrahydro-2H-pyran-3-ol]",AUC(0-t),[6],4470 ng·h/mL
same,Cmax,[6],611 ng/mL
same,Tmax,[6],3.33 h
same,HL—,[6],1.69 h
"CC(C)N1CCOc2c(F)cc(-c3nc(NC4CCCC(C(=O)N(C)C)C4)ncc3F)cc21 (centres unmarked) [TA-7, 3-((5-fluoro-4-(8-fluoro-4-isopropyl-3,4-dihydro-2H-benzo[b][1,4]oxazin-6-yl)pyrimidin-2-yl)amino)-N,N-dimethylcyclohexane-1-carboxamide]",IC50,[1],≤ 500 nM
same,IC50,[2],≤ 500 nM
same,IC50,[3],> 500 nM
same,IC50,[4],≤ 500 nM
same,IC50,[5],17.7 nM
"C[C@H]1CCN(C)c2nc3c(F)cc(-c4nc(N[C@@H]5CCOC[C@H]5O)ncc4Cl)cc3n21 [TB-92, (3S,4R)-4-((5-chloro-4-((S)-9-fluoro-1,4-dimethyl-1,2,3,4-tetrahydrobenzo[4,5]imidazo[1,2-a]pyrimidin-7-yl)pyrimidin-2-yl)amino)tetrahydro-2H-pyran-3-ol]",IC50,[1],≤ 500 nM
same,IC50,[2],≤ 500 nM
same,HL—,[6],1.21 h
same,IC50,[4],≤ 500 nM
"CC(C)N1C(=O)COc2c(F)cc(-c3nc(N[C@@H]4CCOC[C@H]4O)ncc3Cl)cc21 [TA-2, 6-(5-chloro-2-(((3S,4R)-3-hydroxytetrahydro-2H-pyran-4-yl)amino)pyrimidin-4-yl)-8-fluoro-4-isopropyl-2H-benzo[b][1,4]oxazin-3(4H)-one]",IC50,[1],≤ 500 nM
same,IC50,[2],≤ 500 nM
same,IC50,[3],109 nM
same,IC50,[4],500 to 2000 nM
same,IC50,[5],42.2 nM
CC(C)n1c(N2CCOC2=O)nc2c(F)cc(-c3nc(N[C@@H]4CCOC[C@H]4O)ncc3C(F)(F)F)cc21 [TB-27],HL—,[6],3.69 h
CC(C)N1CCOc2c(F)cc(-c3nc(N[C@@H]4CCOC[C@H]4O)ncc3Cl)cc21 [TA-1],IC50,[1],≤ 500 nM
same,IC50,[2],≤ 500 nM
same,IC50,[3],23.6 nM
same,IC50,[4],≤ 500 nM
same,IC50,[5],0.849 nM
"CC(C)N1CCOc2c(F)cc(-c3nc(NC4CCN(S(C)(=O)=O)CC4)ncc3Cl)cc21 [TA-11, 5-chloro-4-(8-fluoro-4-isopropyl-3,4-dihydro-2H-benzo[b][1,4]oxazin-6-yl)-N-(1-(methylsulfonyl)piperidin-4-yl)pyrimidin-2-amine]",IC50,[1],≤ 500 nM
same,IC50,[2],≤ 500 nM
same,IC50,[3],24.7 nM
same,IC50,[4],≤ 500 nM
same,IC50,[5],7.19 nM
"CN1CCCn2c1nc1c(F)cc(-c3nc(NC4CCN(S(C)(=O)=O)CC4)ncc3Cl)cc12 [TB-43, 5-chloro-4-(9-fluoro-1-methyl-1,2,3,4-tetrahydrobenzo[4,5]imidazo[1,2-a]pyrimidin-7-yl)-N-(1-(methylsulfonyl)piperidin-4-yl)pyrimidin-2-amine]",IC50,[1],≤ 500 nM
same,IC50,[2],≤ 500 nM
same,IC50,[3],200 nM
same,IC50,[4],≤ 500 nM
same,IC50,[5],18.6 nM
"CC1CC(=O)N(C)c2nc3c(F)cc(-c4nc(N[C@@H]5CCOC[C@H]5O)ncc4Cl)cc3n21 (stereo partly drawn) [TA-53, 7-(5-chloro-2-(((3S,4R)-3-hydroxytetrahydro-2H-pyran-4-yl)amino)pyrimidin-4-yl)-9-fluoro-1,4-dimethyl-3,4-dihydrobenzo[4,5]imidazo[1,2-a]pyrimidin-2(1H)-one]",AUC(0-t),[6],3530 ng·h/mL
same,Cmax,[6],920 ng/mL
same,Tmax,[6],1 h
same,HL—,[6],1.77 h
"CC(C)N1CCOc2c(F)cc(-c3nc(NC4CCN(S(C)(=O)=O)CC4)ncc3F)cc21 [TA-6, 5-fluoro-4-(8-fluoro-4-isopropyl-3,4-dihydro-2H-benzo[b][1,4]oxazin-6-yl)-N-(1-(methylsulfonyl)piperidin-4-yl)pyrimidin-2-amine]",IC50,[1],≤ 500 nM
same,IC50,[2],≤ 500 nM
same,IC50,[3],13.7 nM
same,IC50,[4],≤ 500 nM
same,IC50,[5],4.29 nM
"CC(C)n1c(N2CCOCC2)nc2c(F)cc(-c3nc(N[C@@H]4CCOC[C@H]4O)ncc3Cl)cc21 [TB-12, (3S,4R)-4-((5-chloro-4-(4-fluoro-1-isopropyl-2-morpholino-1H-benzo[d]imidazol-6-yl)pyrimidin-2-yl)amino)tetrahydro-2H-pyran-3-ol]",IC50,[1],≤ 500 nM
same,IC50,[2],≤ 500 nM
same,HL—,[6],3.14 h
same,IC50,[4],≤ 500 nM
"CC(C)N1CCOc2c(F)cc(-c3ccnc(N[C@@H]4CCOC[C@H]4O)n3)cc21 [TA-4, (3S,4R)-4-((4-(8-fluoro-4-isopropyl-3,4-dihydro-2H-benzo[b][1,4]oxazin-6-yl)pyrimidin-2-yl)amino)tetrahydro-2H-pyran-3-ol]",IC50,[1],≤ 500 nM
same,IC50,[2],≤ 500 nM
same,IC50,[3],116 nM
same,IC50,[4],≤ 500 nM
same,IC50,[5],10.4 nM
CC(C)n1c(N2CCOC2=O)nc2c(F)cc(-c3nc(N[C@@H]4CCOC[C@H]4O)ncc3Cl)cc21 [TB-24],HL—,[6],3.14 h
"COc1ncc(-c2nc(N[C@@H]3CCOC[C@H]3O)ncc2F)c2c1CCC2 [TA-34, (3S,4R)-4-((5-fluoro-4-(1-methoxy-6,7-dihydro-5H-cyclopenta[c]pyridin-4-yl)pyrimidin-2-yl)amino)tetrahydro-2H-pyran-3-ol]",IC50,[3],2580 nM
same,IC50,[5],729 nM
CC(C)N1CCOc2c(F)cc(-c3nc(N[C@@H]4CCC[C@H](NS(C)(=O)=O)C4)ncc3Cl)cc21 [TA-17],IC50,[3],83.4 nM
same,IC50,[5],22.7 nM
CCS(=O)(=O)N1CCC(Nc2ncc(Cl)c(-c3cc(F)c4nc(N5CCOC5=O)n(C(C)C)c4c3)n2)CC1 [TB-31],IC50,[1],≤ 500 nM
same,IC50,[2],≤ 500 nM
same,HL—,[6],1.34 h
same,IC50,[4],≤ 500 nM
